Measurements from patent publication US8901317B2, “Tryptamine derivatives, their preparation and their use in gastropathy” (Council of Scientific & Industrial Research, priority 2010, dated 2014).

Tests used:
[1] = DPPH free radical scavenging assay
Description: The antioxidant property of different tryptamine derivatives were assessed and compared with the known antioxidants for potency. A range of different synthesized compounds and known anti oxidants, quercetin, ascorbic acid and gallic acid were analyzed by the FRAP assay. The FRAP assay is based on the measurement of the ability of the substance to reduce Fe^3+ to Fe^2+, greater the reducing ability greater the anti oxidant property. Antioxidants reduce Fe^3+-TPTZ in to blue colored Fe^2+-TPTZ complex, which results in an increase in the absorbance at 595 nm giving a FRAP value. […] Absorbance changes at different time intervals (FIG. 6) as well as at different concentrations (FIG. 7) at time 6 min in the presence of different compounds at 595 nm were measured. FRAP values at 6 min and 65 min were calculated from different tryptamine derivatives and some known antioxidant (Table 1). […] DPPH assay based on the DPPH free radicals scavenging power of the antioxidant molecules. Higher the scavenging power higher will be the antioxidant property. […] This assay was performed in presence of some known antioxidants such as ascorbic acid, quercetin and gallic acid.
2,2-Diphenyl-1-Picrylhydrazyl (DPPH) is a stable free radical that can accept hydrogen radical or an electron and become a stable diamagnetic molecule. The antioxidants can scavenge the DPPH by donating hydrogen as visualized by discoloration of the DPPH radical from purple to yellow (Pal, C; et al. Free Radic Biol Med, 49(2), 258-267; 2010, Ben Farhat, M.; et al. J. Agric. Food Chem. 57:10349-10356; 2009, Han, J; et al. Wei Sheng Yan Jiu 38:596-598; 2009). The assay system contained 1 mL of compounds under investigation dissolved (in methanol, some compound dissolved in water) at different concentrations in the range 10-100 μM solution and 4 ml of DPPH (0.15 mM) in methanol (80% in water v/v) and mixed well. It was allowed to stand for 30 min at 27° C. away from light. Ascorbic acid at the same concentration was taken as positive control. The absorbance of the solution was measured spectrophotometrically at 517 nm and from the decrease of absorption; the antioxidant activity of different tryptamine derivatives were determined.

caspase-3 = test: Caspase-3 activity in gastric mucosal tissue; format: in vivo, rats; details: in dose dependent manner; gastric mucosa
Description: From cytosolic fraction of gastric mucosal tissues, caspase-9 and caspse-3 activities were measured using commercially available kit (Biovision, Mountain View, Calif., USA and Sigma respectively). In brief, the gastric mucosa was homogenized in caspase lysis buffer (provided with the respective kit). The homogenate was centrifuged at 16,000×g for 15 min. The supernatant was collected and mixed with 50 μl of 2× reaction buffer (provided with the respective kit). This was followed by addition of the substrates: […] (200 μM final concentration) for caspase-3 and LEHD-pNA (200 μM final concentration) for caspase-9. The mixture was incubated at 37° C. for 1 hr and absorbance was taken at 405 nm (Maity, P.; et al. J. Biol. Chem. 284:3058-3068; 2009, Maity, P.; et al. J. Biol. Chem. 283:14391-14401; 2008, Maity, P.; et al. J. Pineal Res. 46:314-323; 2009).

[2] = test system: gastric mucosal primary cultured cells; test: Mitochondrial dehydrogenase activity (MTT reduction assay); format: cell-based, rat
Description: Mitochondrial metabolic function was studied by observing the ability of mitochondrial dehydrogenases to reduce MTT ([3-(4,5-dimethylthiazol-2-yl)-2,5-diphenyl tetrazolium bromide]) into formazan dye (Pal, C; et al. Free Radic Biol Med, 49(2), 258-267; 2010). Equal number of gastric mucosal primary cultured cells were taken (10^6) in each well of a 12 well plate and were divided into three groups control, indomethacin treated (5 mM) and SEGA (50 μM) plus indomethacin (5 mM)-treated. After incubating for 16 hrs, cells were dissociated and centrifuged at 500×g for 5 min and the supernatant was then discarded. Cell pellet was reconstituted in fresh cell culture media. Equal number of cells (10^5 cells) in a final volume of 100 μl cell culture media from each group was then taken in 96 well plates in triplicates. MTT (0.1% final concentration) solution was added to each well of both control and experimental groups, mixed well and incubated for 3 hrs at 37° C. in a CO2 incubator. After the incubation, the culture medium was aspirated carefully and the insoluble formazan crystals at the bottom of the well were solubilized with 100 μl of MTT solubilization solution containing 10% Triton X-100 plus 0.1 N HCl in anhydrous isopropanol. The MTT reduction (absorbance of formazan dye) was measured at 570 nm.

[3] = test system: intra mitochondrial superoxide; test: Intra mitochondrial superoxide (MitoSOX); format: cell-based, rat; details: indomethacin-treated cultured gastric mucosal cells; pretreatment
Description: Isolated mucosal cells from both control and indomethacin-treated cultured gastric mucosa were used for detection of intra mitochondrial superoxide using MitoSOX, an superoxide-sensitive fluorescence probe following the protocol as described in the product catalogue (Maity, P.; et al. J. Biol. Chem. 284:3058-3068; 2009). Cells were stained with the respective fluorescent probe in HB SS (pH 7.4) and incubated for 15 min at 37° C. in the dark as described in the manufacture's protocols. After the incubation, cells were washed with HBSS three times and continued for fluorescence microscopy (Leica, DM-2500, Leica Microsystems). Staining of MitoSOX was visualized using Red filter.

O=C(NCCc1c[nH]c2ccc(O)cc12)c1cc(O)c(O)c(O)c1 [Compound 3a, 3,4,5-trihydroxy-N-(2-(5-hydroxy-1H-indol-3-yl)ethyl)benzamide]
DPPH scavenging power in words ([1]; among all the derivatives): higher scavenging power | Absorbance change (ΔA) at 30 min ([1]; compounds 100 μM, 517 nm (Table 2)): 0.45 ± 0.08 | Absorbance change (ΔA) at 30 min ([1]; concentration 10 μM (Table 3)): 0.27 ± 0.03 | Absorbance change (ΔA) at 30 min ([1]; concentration 30 μM (Table 3)): 0.34 ± 0.05 | Absorbance change (ΔA) at 30 min ([1]; concentration 50 μM (Table 3)): 0.37 ± 0.07 | Absorbance change (ΔA) at 30 min ([1]; concentration 80 μM (Table 3)): 0.42 ± 0.07 | Absorbance change (ΔA) at 30 min ([1]; concentration 100 μM (Table 3)): 0.45 ± 0.08 | antioxidant power compared with ascorbic acid, quercetin and gallic acid ([1]; data not shown): almost equal antioxidant power | indomethacin-induced activation of caspase-3 (caspase-3): prevents indomethacin-induced activation of caspase-3 | toxicity as established by MTT reduction assay [2]: non toxic molecule | mitochondrial dehydrogenase activity (MTT reduction) ([2]; SEGA 50 μM plus indomethacin 5 mM, 16 hrs): restores all the NSAIDs-induced mitochondrial dysfuctions | mitochondrial superoxides (mitoSOX) [3]: restores all the NSAIDs-induced mitochondrial dysfuctions
